According to patent publication US11441168B2, “Method for assaying the activity of spermidine/spermine N1-acetyltransferase” (BioMark Technologies Inc., priority 2011, dated 2022):

Columns and labels:
[1] = system: rat hepatocytes; settings: for Substrate concentration resulting in extensive cytotoxicity / Substrate concentration that resulted in extensive cytotoxicity: rat, 24 h
Procedure: (§1) Refer to the table below for the testing concentrations. Metabolites collected from the incubation reactions were measured by LC/MS/MS analysis.
(§2) Following cell attachment, the culture medium was aspirated from each well, and replaced with pre-warmed InVitroGRO™ HI Rat Medium (added with Torpedo antibiotic mix in the confirmatory experiment) and the substrate solution at the appropriate concentration. The treated cells were returned to incubation for 24 hours. Upon completion of incubation, the medium from each well was collected into 1.7-mL vials containing ice-cold methanol and stored at nominal −80° C. (−72° C. to −88° C.) prior to LC/MS/MS analysis. Hepatocytes remaining in the wells were subjected to MTT assay to evaluate the cytotoxic potential of the substrates at the testing concentrations.
Upon collection of the reaction medium, an aliquot of 0.5 mg/mL MTT in KHB was added immediately to the remaining hepatocytes in each well and then incubated for approximately 30 minutes. Following incubation, the medium was replaced with dimethyl sulfoxide (DMSO) to dissolve the formazan. An aliquot from each well was measured for absorbance at 540 nm on a 96-well flat bottom plate with a microplate reader and DMSO for background absorbance correction.
The cytotoxic potential of the substrates to rat hepatocytes was evaluated by MTT cytotoxicity assays. The assays were performed in both the pilot and the confirmatory experiments.

[2] = target: spermidine/spermine N1-acetyltransferase (SSAT) (Rattus norvegicus, UniProt Q6P9U6); assay: SSAT-mediated N-acetylation enzyme kinetics in plateable cryopreserved primary rat hepatocytes (LC/MS/MS, Lineweaver-Burk); settings: for Vmax of N-acetylation by SSAT: confirmatory experiment, primary rat hepatocytes, 24-hour incubation, Lineweaver-Burk estimate
Procedure: as §1
Immediately before use, cryopreserved primary rat hepatocytes were thawed in a water bath at 37° C. and resuspended in pre-warmed InVitroGRO™ CP Rat Medium. […] Hepatocyte concentrations were adjusted by addition with InVitroGRO™ CP Rat Medium to achieve the target plating concentration of 0.70×10^6 cells/m L. Aliquots of hepatocytes were plated (0.5 mL/well) in 24-well CellAffix culture plates and the plates were placed in an incubator maintained at 37° C. with a highly humidified atmosphere of 95% air and 5% […] for 4 hours to allow hepatocyte attachment before dosing with the selective substrate solutions.
as §2
Four LC/MS/MS assays were employed to individually quantitate the four metabolites in the incubation samples.
Enzyme kinetics was evaluated based on the enzymatic conversion of the substrate at a range of testing concentrations into their N-acetylated metabolites over a 24-hour incubation reaction time course. Metabolite formation from different testing substrate concentrations after incubation was measured by LC/MS/MS and the resulting data constructed into Lineweaver-Burk plots of the double reciprocal of reaction velocity against substrate concentrations to estimate the Km and Vmax values of SSAT-mediated N-acetylation of each substrate tested.

[3] = target: SSAT in cytosolic liver fraction of transgenic mice (Mus musculus, UniProt P48026); settings: read-out: Km of spermidine acetylation (literature reference); cited from earlier work
SSAT in cytosolic liver fraction of transgenic mice, sequence (P48026 whole entry): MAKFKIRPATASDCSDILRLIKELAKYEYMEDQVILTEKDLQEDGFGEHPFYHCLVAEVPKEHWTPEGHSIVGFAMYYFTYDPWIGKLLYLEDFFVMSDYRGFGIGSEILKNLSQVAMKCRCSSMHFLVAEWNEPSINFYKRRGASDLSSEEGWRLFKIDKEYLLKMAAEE

spermidine/spermine N1-acetyltransferase (SSAT), sequence (Q6P9U6 1-171): as the sequence (P48026 whole entry) above, with I35V, Q42L counted along it

Row | Structure (SMILES) | Cytotoxicity to rat hepatocytes (in words) [1] | Substrate concentration resulting in extensive cytotoxicity [1] | Substrate concentration that resulted in extensive cytotoxicity [1] | Vmax of N-acetylation by SSAT [2] | Km [3] | Km at 24 h ([2]; rat)
1 | NC12CC3CC(CC(C3)C1)C2 [amantadine] | Significant cytotoxicity | approximately 1140 μM | approximately 1170 μM | 0.00197 pmol/min/million cells | – | –
2 | NCCCCNCCCN [spermidine] | No cytotoxicity | – | – | 7.21 pmol/min/million cells | 267 ± 46 µM | –
3 | Cc1cccc(C)c1NC(=O)C(C)N (centres unmarked) [tocainide] | No cytotoxicity | – | – | 0.617 pmol/min/million cells | – | –
4 | CC(N)C12CC3CC(CC(C3)C1)C2 (centres unmarked) [rimantadine] | Significant cytotoxicity | ~220 µM | ~280 µM | 0.364 pmol/min/million cells | – | 1.83 mM
